Where a name gives a salt, the structure may show the parent alone.

The assay addresses T1, CCR1 (Homo sapiens, UniProt P32246).
T1 construct: the THP-1 cell line, which expresses the endogenous CCR1 receptor; endogenous in cells; host or cells: THP-1 cells (human monocytic cell line)
T1 sequence (P32246 1-355): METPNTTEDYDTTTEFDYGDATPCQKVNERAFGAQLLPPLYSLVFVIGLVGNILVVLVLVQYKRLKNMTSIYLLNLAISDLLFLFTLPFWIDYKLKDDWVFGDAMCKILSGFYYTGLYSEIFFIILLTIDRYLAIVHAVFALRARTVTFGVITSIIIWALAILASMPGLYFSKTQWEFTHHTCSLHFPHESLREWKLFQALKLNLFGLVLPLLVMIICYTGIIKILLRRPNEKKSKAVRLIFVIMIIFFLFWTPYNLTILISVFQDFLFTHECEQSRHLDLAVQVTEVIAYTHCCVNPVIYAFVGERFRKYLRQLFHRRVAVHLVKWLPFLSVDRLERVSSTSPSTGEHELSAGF
Put plainly: Antagonism of MIP-1α binding to human THP-1 cells (125-I MIP-1α radioligand binding). Particulars: 125-I labeled human MIP-1α, THP-1 cells expressing endogenous CCR1; read-out: CCR1 Binding Ki (n = 1 unless otherwise noted). As for the experimental part: Antagonism of MIP-1α Binding to Human THP-1 Cells
Compounds of the present invention have activity in the antagonism of MIP-1α binding to human THP-1 cells described here.
Millipore filter plates (#MABVN1250) are treated with 100 μl of binding buffer (0.5% bovine serum albumin, 20 mM HEPES buffer and 5 mM magnesium chloride in RPMI 1640 media) for thirty minutes at room temperature. To measure binding, 50 μl of binding buffer, with or without a known concentration of compound, is combined with 50 μl of ^125-I labeled human MIP-1α (to give a final concentration of […] radioligand) and 50 μl of binding buffer containing 5×10^5 cells. Cells used for such binding assays can include the THP-1 cell line, which expresses the endogenous CCR1 receptor, or human peripheral blood mononuclear cells, isolated by Ficoll-Hypaque gradient centrifugation, or human monocytes (Weiner et al., J. Immunol. Methods, 1980, 36, 89). The mixture of compound, cells and radioligand is incubated at room temperature for thirty minutes. Plates are placed onto a vacuum manifold, vacuum applied, and the plates washed three times with binding buffer containing 0.5M NaCl. The plastic skirt is removed from the plate, the plate allowed to air dry, the wells punched out and counted. The percent inhibition of binding is calculated using the total counts obtained in the absence of any competing compound and the background binding determined by addition of 100 nM MIP-1α in place of the test compound.
Compounds of the present invention were tested in the assay described immediately above and the results, including results from the chiral separation of Example 1c, shown in Table 2 below were obtained.
By Ki is commonly meant a measure of affinity in units of concentration, obtained from inhibition or displacement. For the compound `NC(=O)Nc1cc(Cl)ccc1OCC(O)C1CCN(Cc2ccc(Cl)c(Cl)c2)CC1` (single isomer, unassigned) [1c Enantiomer 2], the Ki was 6.1 ± 0.71 nM. Turning to `NC(=O)Nc1cc(Cl)ccc1OCC(O)C1CCN(Cc2ccc(Cl)c(Cl)c2)CC1` (single isomer, unassigned) [1c Enantiomer 1], the Ki is 1500 nM. On to `OC(COc1ccc(Cl)cc1)C1CCN(Cc2ccc(Cl)cc2)CC1` (racemic) [Example 1i, 1-(1-(4-Chlorobenzyl)piperidin-4-yl)-2-(4-chlorophenoxy)ethanol, TFA salt], for which the Ki stood at 111 nM. Under `OC(COc1ccc(Cl)cc1)C1CCN(Cc2ccccc2)CC1` (racemic) [Example 1l, 1-(1-Benzylpiperidin-4-yl)-2-(4-chlorophenoxy)ethanol, TFA salt] stands 6440 nM; under `NC(=O)Nc1cc(Cl)ccc1OCC(O)C1CCN(Cc2ccc(Cl)cc2)CC1` (racemic) [Example 1a, 1-(5-Chloro-2-(2-(1-(4-chlorobenzyl)piperidin-4-yl)-2-hydroxyethoxy)phenyl)urea, TFA salt], 4.49 ± 1.15 nM.

These data come from patent publication US8324251B2, “Cyclic modulators of chemokine receptor activity” (Bristol-Myers Squibb Company, priority 2006, dated 2012).
